Measured values as given in US20230124862A1, “BISMUTH THIOL COMPOUNDS AND COMPOSITIONS AND METHODS OF TREATING MICROBIAL CO-INFECTIONS” (Microbion Corporation, priority 2020, published 2023).
≈ marks a conversion by molar mass, not a printed value. Where “and” joins values, the source holds several entries; their conditions need not be identical. Equal entries are not always repeated. Where two headings read alike, the source gives them in different places. Starred links: 1 amine or outer side, 2 acyl side, 3 side chain; linkers in the order of their positions; H or OH if unused. Positions of bridges follow the written chain, without caps; N, C: chain ends. Non-standard residues stand in square brackets, D forms with d. Residues, ends and D or L forms follow the SMILES beside them. *: point of attachment. hTyr(3S-OH,4S-OH,3'-OSO3H) = N[C@H](C(=O)O)[C@H](O)[C@@H](O)c1ccc(O)c(OS(=O)(=O)O)c1; Orn(4R-OH,5R-OH) = O=C([C@H](C[C@@H](O)[C@@H](O)N[*:3])N[*:1])[*:2]; Pro(3S-OH,4S-Me) = C[C@H]1CN[C@H](C(=O)O)[C@H]1O; X1 = CCCCCOc1ccc(-c2cc(-c3ccc(C(=O)*)cc3)no2)cc1; Gln(3R-OH) = NC(=O)C[C@@H](O)[C@H](N)C(=O)O; Hyp = O=C(O)[C@@H]1C[C@@H](O)CN1

What was measured:
Aspergillus spp. = test: Antifungal broth microdilution (Example 13); type: cell-based, A. niger, A. terreus, A. fumigatus, A. flavus
S. aureus ATCC 29213 [1] = test: MIC control strain; details: QC organism, Example 13
Candida krusei [2] = test: Antifungal broth microdilution (Example 13); type: cell-based
E. coli ATCC 25922 = test: MIC control strain; details: QC organism, Example 13
Candida krusei [3] = details: C. krusei ATCC 6258, CLSI established QC range, cited from earlier work
[4] = system: C. parapsilosis ATCC 22019; details: cited from earlier work
[5] = system: C. parapsilosis ATCC 22019; test: Antifungal broth microdilution (Example 13), QC organism; type: cell-based, Candida parapsilosis; details: comparators, single value
S. aureus ATCC 29213 [6] = details: control strain ATCC 29213; cited from earlier work
S. aureus [7] = details: S. aureus MMX 101 (ATCC 29213); cited from earlier work
Enterococcus spp. = test: Broth microdilution MIC (Example 11); type: cell-based, E. faecalis, E. faecium; details: Lev^R Cip^R Ery^R
S. aureus [8] = test: Broth microdilution MIC (Example 11); type: cell-based, Staphylococcus aureus
Enterobacteriaceae [9] = test: Broth microdilution MIC (Example 11); type: cell-based, E. coli, K. pneumoniae, Enterobacter cloacae
[10] = system: P. aeruginosa and A. baumannii; details: P. aeruginosa MMX 103 (ATCC 27853); CLSI QC ranges shown in parenthesis; cited from earlier work
[11] = system: P. aeruginosa and A. baumannii; test: Broth microdilution MIC (Example 11); type: cell-based, Pseudomonas aeruginosa, Acinetobacter baumannii
Enterobacteriaceae [12] = details: E. coli MMX 102 (ATCC 25922); CLSI QC ranges shown in parenthesis; cited from earlier work

CC[C@H](C)C[C@H](C)CCCCCCCCC(=O)N[C@H]1C[C@@H](O)[C@@H](NCCN)NC(=O)[C@@H]2[C@@H](O)CCN2C(=O)[C@H]([C@H](O)CCN)NC(=O)[C@H]([C@H](O)[C@@H](O)c2ccc(O)cc2)NC(=O)[C@@H]2C[C@@H](O)CN2C(=O)[C@H]([C@@H](C)O)NC1=O [Caspofungin]
MIC 24 hr (MEC) (Aspergillus spp.; A. flavus ATCC 204304, 24 hr, MEC): 0.12 (MEC) | MIC 48 hr (MEC) (Aspergillus spp.; A. flavus ATCC 204304, 48 hr, MEC): 0.06 (MEC) | MIC 24 hr (MEC) (Aspergillus spp.; A. fumigatus ATCC MYA-3626, 24 hr, MEC): 0.06 (MEC) | MIC 48 hr (MEC) (Aspergillus spp.; A. fumigatus ATCC MYA-3626, 48 hr, MEC): 0.06 (MEC) | MIC 24 hr (S. aureus ATCC 29213 [1]): >64 | MIC 24 hr (Candida krusei [2]; C. krusei ATCC 6258, 24 hr, comparators, single value): 0.25 µg/mL (≈ 0.229 µM) | MIC 48 hr (Candida krusei [2]; C. krusei ATCC 6258, 48 hr, comparators, single value): 0.25 µg/mL (≈ 0.229 µM) | MIC 24 hr (E. coli ATCC 25922): >64 | QC Range 24 hr (Candida krusei [3]): 0.12-1 | QC Range 48 hr (Candida krusei [3]): 0.25-2 | QC Range 24 hr ([4]; C. parapsilosis ATCC 22019, CLSI established QC range, 24 hr): 0.25-1 | QC Range 48 hr ([4]; C. parapsilosis ATCC 22019, CLSI established QC range, 48 hr): 0.5-4 | MIC 24 hr [5]: 0.25 µg/mL (≈ 0.229 µM) | MIC 48 hr [5]: 0.5 µg/mL (≈ 0.457 µM)

CC[C@H]1OC(=O)[C@H](C)[C@@H](O[C@H]2C[C@@](C)(OC)[C@@H](O)[C@H](C)O2)[C@H](C)[C@@H](O[C@@H]2O[C@H](C)C[C@H](N(C)C)[C@H]2O)[C@](C)(OC)C[C@@H](C)C(=O)[C@H](C)[C@@H](O)[C@]1(C)O [Clarithromycin, reference compound]
Expected MIC: goal (acceptable range) (S. aureus ATCC 29213 [6]): 0.25 (0.12-0.5) mcg/mL

Gentamicin
CLSI QC range of MIC (S. aureus [7]): (0.12-1) μg/mL | MIC (Enterococcus spp.; E. faecalis MMX 8960, VRE): >64 µg/mL | MIC (Enterococcus spp.; E. faecalis MMX 8961, VRE): 8 µg/mL | MIC (Enterococcus spp.; E. faecalis MMX 8962, VRE): >64 µg/mL | MIC (Enterococcus spp.; E. faecium MMX 485, VRE vanA): >64 µg/mL | MIC (Enterococcus spp.; E. faecium MMX 752, VRE vanA): >64 µg/mL | MIC (S. aureus [8]; S. aureus MMX 101 (ATCC 29213), QC, MSSA): 0.12 µg/mL | MIC (S. aureus [8]; S. aureus MMX 5373, MRSA, Lev^R Cip^R CC^R Ery^R Ox^R): 0.25 µg/mL | MIC (S. aureus [8]; S. aureus MMX 6311, MRSA, Lev^R Cip^R CC^R Ery^R Ox^R): 0.25 µg/mL | MIC (S. aureus [8]; S. aureus MMX 9203, MRSA, Lev^R Cip^R Ery^R Ox^R): 0.12 µg/mL | MIC (S. aureus [8]; S. aureus MMX 9204, MRSA, Lev^R Cip^R Ery^R Ox^R): 0.25 µg/mL | MIC (S. aureus [8]; S. aureus MMX 9205, MRSA, Lev^R Cip^R CC^R Ery^R Ox^R): 0.25 µg/mL | MIC (Enterobacteriaceae [9]; E. cloacae MMX 5981 (ATCC BAA-2468), NDM-1, Lev^R MEM^R CAZ^R Gm^R): >64 µg/mL | MIC (Enterobacteriaceae [9]; E. coli MMX 102 (ATCC 25922), QC): 1 µg/mL | MIC (Enterobacteriaceae [9]; E. coli MMX 5980 (ATCC BAA-2469), NDM-1, Lev^R MEM^R CAZ^R Gm^R): >64 µg/mL | MIC (Enterobacteriaceae [9]; E. coli MMX 8423, ESBL, Lev^R CAZ^R Gm^R): 64 µg/mL | MIC (Enterobacteriaceae [9]; E. coli MMX 8424, ESBL, CAZ^R): 0.25 µg/mL | MIC (Enterobacteriaceae [9]; E. coli MMX 8425, ESBL, Lev^R CAZ^R Gm^R): >64 µg/mL | MIC (Enterobacteriaceae [9]; K. pneumoniae MMX 4622, KPC-2, MEM^R CAZ^R): 0.25 µg/mL | MIC (Enterobacteriaceae [9]; K. pneumoniae MMX 4623, KPC-2, MEM^R CAZ^R Gm^R): 64 µg/mL | MIC (Enterobacteriaceae [9]; K. pneumoniae MMX 4653, KPC-3, Lev^R MEM^R CAZ^R): 1 µg/mL | MIC (Enterobacteriaceae [9]; K. pneumoniae MMX 4683, KPC-2, Lev^R MEM^R CAZ^R): 1 µg/mL | MIC (Enterobacteriaceae [9]; K. pneumoniae MMX 4684, ESBL, MEM^R): 0.25 µg/mL | MIC (Enterobacteriaceae [9]; K. pneumoniae MMX 4685, ESBL, Lev^R MEM^R CAZ^R): 1 µg/mL | MIC (Enterobacteriaceae [9]; K. pneumoniae MMX 4694, KPC-3, Lev^R MEM^R CAZ^R): 8 µg/mL | MIC (Enterobacteriaceae [9]; K. pneumoniae MMX 5979, NDM-1, Lev^R MEM^R CAZ^R Gm^R): >64 µg/mL | MIC, CLSI QC range [10]: (0.5-2) μg/mL | MIC ([11]; A. baumannii MMX 2592, MDR, Lev^R Cip^R MEM^R CAZ^R Gm^R): >64 µg/mL | MIC ([11]; A. baumannii MMX 2593, MDR, Lev^R Cip^R MEM^R CAZ^R Gm^R): >64 µg/mL | MIC ([11]; A. baumannii MMX 3372, MDR, Cip^R MEM^1 CAZ^1): 0.5 µg/mL | MIC ([11]; A. baumannii MMX 3373, Sensitive): 0.12 µg/mL | MIC ([11]; A. baumannii MMX 4651 (NCTC 13304), MDR: OXA-27, Lev^R Cip^R MEM^R CAZ^R Gm^1): 8 µg/mL | MIC ([11]; P. aeruginosa MMX 103 (ATCC 27853), QC): 1 µg/mL | MIC ([11]; P. aeruginosa MMX 1381, MDR, Lev^R Cip^R MEM^R CAZ^R): 8 µg/mL | MIC ([11]; P. aeruginosa MMX 2562, MDR, Lev^R Cip^R MEM^R CAZ^R): 8 µg/mL | MIC ([11]; P. aeruginosa MMX 3991, MDR, Lev^R Cip^R MEM^R CAZ^R): 4 µg/mL | MIC ([11]; P. aeruginosa MMX 4654, IMP-7, Lev^R Cip^R MEM^R CAZ^R): >64 µg/mL | MIC ([11]; P. aeruginosa MMX 4697, VIM-2, Lev^R Cip^R MEM^R CAZ^R): 4 µg/mL | MIC, CLSI QC range (Enterobacteriaceae [12]): (0.25-1) μg/mL

CCCCCOc1ccc(-c2cc(-c3ccc(C(=O)N[C@H]4C[C@@H](O)[C@@H](O)NC(=O)[C@@H]5[C@@H](O)[C@@H](C)CN5C(=O)[C@H]([C@H](O)CC(N)=O)NC(=O)[C@H]([C@H](O)[C@@H](O)c5ccc(O)c(OS(=O)(=O)O)c5)NC(=O)[C@@H]5C[C@@H](O)CN5C(=O)[C@H]([C@@H](C)O)NC4=O)cc3)no2)cc1 [Micafungin] (X1-[Orn(4R-OH,5R-OH)]T[Hyp][hTyr(3S-OH,4S-OH,3'-OSO3H)][Gln(3R-OH)][Pro(3S-OH,4S-Me)]; lactam 1-C)
MIC 24 hr (MEC) (Aspergillus spp.): 0.06 (MEC) and 0.03 (MEC) | MIC 48 hr (MEC) (Aspergillus spp.): 0.008 (MEC) | MIC 24 hr (S. aureus ATCC 29213 [1]): >64 | MIC 24 hr (Candida krusei [2]): 0.5 µg/mL (≈ 0.394 µM) | MIC 48 hr (Candida krusei [2]): 0.5 µg/mL (≈ 0.394 µM) | MIC 24 hr (E. coli ATCC 25922): >64 | QC Range 24 hr (Candida krusei [3]): 0.12-0.5 | QC Range 48 hr (Candida krusei [3]): 0.12-0.5 | QC Range 24 hr [4]: 0.5-2 | QC Range 48 hr [4]: 0.5-4 | MIC 24 hr [5]: 0.5 µg/mL (≈ 0.394 µM) | MIC 48 hr [5]: 2 µg/mL (≈ 1.57 µM)
